Experimental data as given in paper PMC10480232 (Scientific Reports, 2023).
Non-standard residues stand in square brackets, D forms with d. Residues, ends and D or L forms follow the SMILES beside them.

Assays:
SARS-CoV-1 HR1 = SARS-CoV-1 HR1 (Severe acute respiratory syndrome coronavirus, UniProt P59594); assay: biochemical; assay type: binding
SARS-CoV-2 HR1 = SARS-CoV-2 HR1 (Severe acute respiratory syndrome coronavirus 2, UniProt P0DTC2); assay: biochemical; assay type: binding
[1] = tested on: SARS-CoV-2 (nCoV/USA_WA1/2020)
[2] = target: SARS-CoV-1 spike heptad repeat 1 peptide, biotinylated (SARS-CoV-1); assay: BLI
SARS-CoV-2 = conditions: 1 h

CC[C@@H](C)[C@@H](NC(=O)[C@H]1CCCN1C(=O)[C@H]1CCCN1C(=O)[C@H](NC(=O)[C@@H](Cc1c[nH]c2ccccc12)NC(=O)[C@@H](CCCCN)NC(=O)[C@@H](CC(C)C)NC(=O)[C@H](NC(=O)[C@@H](CCCCN)NC(=O)CNC(=O)[C@H](NC(=O)[C@@H](CCCCN)NC(=O)[C@@H](CCCCN)NC(=O)[C@@H](CC(C)C)NC(=O)[C@@H](CCCNC(=N)N)NC(=O)[C@@H](CCCCN)NC(=O)[C@@H](CCCNC(=N)N)NC(=O)[C@H](NC(=O)[C@@H](CCCCN)NC(=O)[C@@H](CCCCN)NC(=O)[C@@H](CCCNC(=N)N)NC(=O)[C@@H](CC(C)C)NC(=O)[C@@H](CCCNC(=N)N)NC(=O)[C@@H](CCCNC(=N)N)NC(=O)[C@@H](Cc1ccccc1)NC(=O)[C@@H](CCCNC(=N)N)NC(=O)CNC(=O)[C@H](N)C(C)C)[C@H](C)O)[C@H](C)CC)C(C)C)[C@H](C)CC)C(=O)N[C@@H](C(=O)NCC(=O)N[C@H](CO)C(=O)N[C@@H](C(=O)N1CCC[C@@H]1C(=O)N[C@H](CC(C)C)C(=O)NCC(=O)N[C@H](CO)C(=O)NCC(=O)O)[C@H](C)CC)C(C)C [D-Yongshi] (H-[dV]G[dR][dF][dR][dR][dL][dR][dK][dK][dT][dR][dK][dR][dL][dK][dK][dI]G[dK][dV][dL][dK][dW][dI][dP][dP][dI][dV]G[dS][dI][dP][dL]G[dS]G-OH; N-terminus and C-terminus assumed)
cytotoxicity compared with parent or control peptide (in words) (Vero hACE2 cells): greatly increased cytotoxicity | Kd (SARS-CoV-1 HR1): > 100 µM | Kd (SARS-CoV-2 HR1): > 100 µM | SARS-CoV-2 inhibition by D-enantiomer (in words) [1]: only observed at concentrations that also induced substantial cell death

SARS-CoV-2 spike heptad repeat 2 peptide
Kd [2]: 59.5 µM

CC[C@H](C)[C@H](NC(=O)[C@@H](NC(=O)[C@@H](N)CO)[C@@H](C)CC)C(=O)N[C@@H](CC(N)=O)C(=O)N[C@@H](Cc1ccccc1)C(=O)N[C@@H](CCC(=O)O)C(=O)N[C@@H](CCCCN)C(=O)N[C@@H](CC(C)C)C(=O)O [OVA, reference compound]
HEK293T TD50 (HEK293T cells): > 50 µM | Vero TD50 48 h (Vero hACE2 cells): > 50 µM | Vero TD50 24 h (Vero A2T2 cell line): > 400 µM

CC[C@H](C)[C@H](NC(=O)[C@H](CCCCN)NC(=O)[C@H](CCC(=O)O)NC(=O)[C@H](CCCCN)NC(=O)[C@H](CO)NC(=O)[C@H](CCCCN)NC(=O)[C@H](CCCNC(=N)N)NC(=O)[C@H](Cc1ccccc1)NC(=O)[C@H](Cc1ccccc1)NC(=O)[C@H](CC(=O)O)NC(=O)CNC(=O)[C@H](CC(C)C)NC(=O)[C@@H](N)CC(C)C)C(=O)NCC(=O)N[C@@H](CCCCN)C(=O)N[C@@H](CCC(=O)O)C(=O)N[C@@H](Cc1ccccc1)C(=O)N[C@@H](CCCCN)C(=O)N[C@@H](CCCNC(=N)N)C(=O)N[C@H](C(=O)N[C@H](C(=O)N[C@@H](CCC(N)=O)C(=O)N[C@@H](CCCNC(=N)N)C(=O)N[C@H](C(=O)N[C@@H](CCCCN)C(=O)N[C@@H](CC(=O)O)C(=O)N[C@@H](Cc1ccccc1)C(=O)N[C@@H](CC(C)C)C(=O)N[C@@H](CCCNC(=N)N)C(=O)N[C@@H](CC(N)=O)C(=O)N[C@@H](CC(C)C)C(=O)N[C@H](C(=O)N1CCC[C@H]1C(=O)N[C@@H](CCCNC(=N)N)C(=O)N[C@H](C(=O)N[C@@H](CCC(=O)O)C(=O)N[C@@H](CO)C(=O)O)[C@@H](C)O)C(C)C)[C@@H](C)CC)C(C)C)[C@@H](C)CC [LL-37, reference compound]
hemolytic activity (in words) (human red blood cells): considerable hemolytic activity | HEK293T TD50 (HEK293T cells): 26.61 µM | Vero TD50 48 h (Vero hACE2 cells): 39.44 µM | SARS-CoV-2 inhibition at 50 µM (SARS-CoV-2): > 50%
